Reference: patent US8394785B2, “Methods for the treatment and amelioration of urticaria” (Jado Technologies GmbH, priority 2005, dated 2013)
Entries after “also recorded” stand apart in the source; their conditions may differ. Where a name gives a salt, the structure may show the parent alone. Read-outs that look alike come from different tables or passages of the source.

How the values were obtained:
[1] = test system: Rat basophilic leukemia (RBL-2H3) cells; assay: Mast cell degranulation assay (β-hexosaminidase release); format: cell-based; conditions: for IC50: 1 h, concentration at which 50% of maximal inhibition is reached, RBL-2H3, 60 min incubation with compound, DNP antigen challenge, read-out: ID50 (the source's name); for activity in the mast cell degranulation assay (in words): FIGS. 1 to 8
Description: The assay measures release of β-hexosaminidase as a marker of release of various preformed pharmacological agents in response to clustering of the high affinity IgE receptor (FcεRI) by means of multivalent antigen-IgE complexes. Rat basophilic leukemia (RBL-2H3) cells, a commonly used model of mast cell degranulation, are sensitized with anti-DNP specific IgE and challenged with multivalent DNP-BSA. The release of β-hexosaminidase into the supernatant is measured by enzymatic conversion of the fluorogenic substrate 4-methylumbelliferyl-N-acetyl-β-D-glucosaminide to N-acetyl-β-D-glucosamine and highly fluorescent methylumbelliferone and quantified by fluorescence detection in a Tecan Safire™ plate reader.
RBL-2H3 cells obtained from the German Collection of Microorganisms and Cell Cultures (Braunschweig, Germany) were maintained in 70% Minimum Essential Medium with Earle's Salts/20% RPMI 1640/10% heat-inactivated fetal calf serum) supplemented with 2 mM GlutaMAX™-I in 5% CO2 at 37° C. and routinely checked to be free of mycoplasma contamination. Cells grown in 175 cm^2 flasks were split with 0.05% Trypsin/EDTA and resuspended in 20 ml fresh medium. One hundred and 50 μl cell suspension were plated per well into 24 well cluster plates (Costar, Schiphol-Rijk, Netherlands) and cells were used one or two days after plating, respectively.
Two to 24 hours before incubation with test compounds the medium was removed and cells were sensitized with 0.4 μg/ml anti-DNP IgE in fresh medium. Following sensitization, cells were washed once with warm TyB and incubated for 60 min with test compound at a maximum of 100 μM or the highest non-toxic concentration (total vehicle concentration adjusted to 1%) or 1% vehicle in TyB at 37° C. DNP-HSA (0.1 μg/ml final concentration) or buffer alone was added and cells incubated for 15 min at 37° C. Plates were centrifuged at 4° C. for 5 min at 250×g and immediately transferred to ice. Supernatants were collected and the cells lysed with lysis buffer. Hexosaminidase activity in supernatants and lysates was measured by incubating 25 μl aliquots with 100 μl MUG substrate solution in a 96-well plate at 37° C. for 30 min. The reaction was terminated by addition of 150 μl stop solution. Fluorescence was measured in a Tecan Safire™ plate reader at 365 nm excitation and 440 nm emission settings.
Each compound is tested in duplicates in at least three independent experiments. β-hexosaminidase release is calculated after subtraction of unspecific release (release without addition of antigen) using the formula: % degranulation=100×RFU supernatant/RFU lysate
Inhibition of β-hexosaminidase release with respect to control is calculated as
follows: % inhibition=100×(1−(RFU supernatant of compound/RFU supernatant of control))

[2] = test system: membrane integrity (lactate dehydrogenase release); assay: Cytotoxicity test / membrane integrity assay (Promega Cytotox-One), lactate dehydrogenase release; conditions: for CD50: concentration at which 50% of maximal lactate dehydrogenase release is reached; for cytotoxicity (in words): Table 2
[3] = test system: membrane integrity (lactate dehydrogenase release)
[4] = Rattus norvegicus, RBL-2H3, read-out: maximum inhibition (concentration used)
[5] = Rattus norvegicus, RBL-2H3, at or 25 μM, read-out: inhibition of degranulation
[6] = Rattus norvegicus, RBL-2H3, 25 μM, read-out: maximum inhibition (concentration used)

In the case of `CCCCCCCCCCCCCCCCOC[C@H](COP(=O)([O-])OCC[N+](C)(C)C)OC` [Compound 1, 2-O-methyl PAF C-16], the IC50 ([1]; Rattus norvegicus) is reported as 2.9 µM, the inhibition at 10 µM [1, 4] is reported as 89% and the inhibition at 25 µM [1, 5] is reported as over 75%. The CD50 [2] was 48.2 µM.

In the case of `CCCCCCCCCCCCCCCCOC[C@H](COP(=O)([O-])OCC[N+](C)(C)C)OCC` [Compound 2, 2-O-ethyl PAF C-16], the IC50 ([1]; Rattus norvegicus) is reported as 3 µM, the inhibition at 10 µM [1, 4] is reported as 86% and the inhibition at 25 µM [1, 5] is reported as over 75%. The CD50 [2] was 57.2 µM.

For `CCCCCCCCCCCCCCCCSCC(COC)COP(=O)([O-])OCC[N+](C)(C)C` (centres unmarked) [Compound 4, 1-hexadecylmercapto-2-methoxymethyl-3-propyl phosphoric acid monocholine ester, reference compound], the IC50 ([1]; Rattus norvegicus) was 4.8 µM, the inhibition at 25 µM [1, 6] was 84% and the inhibition at 25 µM [1, 5] was over 75%.

`CCCCCCCCCCCCCCCCCCOCC(COP(=O)([O-])OCC[N+](C)(C)C)OC` (centres unmarked) [Compound 5, edelfosine, reference compound] showed an IC50 ([1]; Rattus norvegicus) of 6.2 µM, an inhibition at 25 µM [1, 6] of 79% and an inhibition at 25 µM [1, 5] of over 75%. For the same compound, the “cytotoxicity (in words)” value [2] was “higher cytotoxicity” and the CD50 [2] was 59.0 µM.

In the case of `C/C=C/C(=O)O[C@H](COCCCCCCCCCCCCCCCC)COP(=O)([O-])OCCCCCC[N+](C)(C)C` [Compound 7, butenoyl PAF C-16], the IC50 ([1]; Rattus norvegicus) is reported as 11 µM, the inhibition at 25 µM [1, 6] is reported as 69% and the CD50 [2] is reported as 79.6 µM.

With `CCCCCCCCCCCCCCCCOC[C@H](COP(=O)([O-])OCC[N+]1(C)CCCC1)OC(C)=O` [Compound 8, pyrrolidino PAF C-16] the IC50 ([1]; Rattus norvegicus) was 13.7 µM, the inhibition at 25 µM [1, 6] was 53% and the CD50 [2] was 50.2 µM.

Compound `CCCCCCCCCCCCCCCCCCOP(=O)([O-])OC1CC[N+](C)(C)CC1` [Compound 9, octadecyl-(N,N-dimethyl-piperidinio-4-yl)-phosphate, reference compound] has an IC50 ([1]; Rattus norvegicus) of 2.8 µM, an inhibition at 10 µM [1, 4] of 85% and an inhibition at 25 µM [1, 5] of over 75%. For the same compound, the “cytotoxicity (in words)” value [2] was “less cytotoxic; also recorded: low toxicity” and the CD50 [2] was 76.7 µM.

In the case of `CCCCCCCCCCCCCCCCOC[C@H](COP(=O)([O-])OCC[N+](C)(C)C)SC(C)=O` [Compound 12, 2-thio PAF C-16], the inhibition at 25 µM [1, 6] is reported as 41% and the CD50 [2] is reported as 86.5 µM.

Work on `CCCCCCCCCCCCCCCCOC[C@@H](O)COP(=O)([O-])OCC[N+](C)(C)C` [Compound 13, 1-hexadecyl-sn-glycero-3-phosphocholine 3-sn-lysophosphatidylcholine] yielded an inhibition at 25 µM [1, 6] of 41% and a CD50 [2] of 58.8 µM.

With `CCCCCCCCCCCCCCCCOC[C@H](COP(=O)([O-])OCC[N+](C)(C)C)OC(C)=O` [Compound 14, 1-hexadecyl-2-acetyl-sn-glycero-3-phosphocholine] the inhibition at 25 µM [1, 6] was 42% and the CD50 [3] was 57.7 µM.

With `CCCCCCCCCCCCCCCCOC[C@H](COP(=O)([O-])OCCCCCC[N+](C)(C)C)OC(C)=O` [Compound 16, 1-O-hexadecyl-2-acetyl-sn-glycero-3-phospho-(N,N,N-trimethyl)hexanolamine] the inhibition at 25 µM [1, 6] was 45% and the CD50 [2] was 51.3 µM.

For `CCCCCCCCCCCCOP(=O)([O-])OCC[N+](C)(C)C` [Compound 17, Dodecylphosphocholine], the IC50 ([1]; Rattus norvegicus) was 7.1 µM, the inhibition at 25 µM [1, 6] was 76% and the inhibition at 25 µM [1, 5] was over 75%. The CD50 [2] was over 100 µM.

`CCCCCCCCCCCCCCCC(=O)OC[C@H](O)COP(=O)([O-])OCC[N+](C)(C)C` [Compound 20, 1-palmitoyl-2-hydroxy-sn-glycero-3-phosphocholine] gave an inhibition at 25 µM [1, 6] of 26% and a CD50 [3] of 70.3 µM.

In the case of `CCCCCCCCCCCCCCCCOC[C@H](CO)OC` [Compound 22, 1-O-hexa-decyl-2-O-methyl-sn-glycerol, reference compound], the “activity in the mast cell degranulation assay (in words)” value (from here on “activity”) [1] is reported as “poor results”, the inhibition at 100 µM ([1]; Rattus norvegicus, RBL-2H3, 100 μM, read-out: maximum inhibition (concentration used)) is reported as 15% and the CD50 [2] is reported as over 100 µM.

Compound `CCCCCCCCCCCCCCCCCCOP(=O)([O-])OCC[N+](C)(C)C` [Compound 23, octadecylphosphocholine (C18:0)] has an IC50 ([1]; Rattus norvegicus) of 2.6 µM, an inhibition at 10 µM [1, 4] of 82% and an inhibition at 25 µM [1, 5] of over 75%. For the same compound, the CD50 [2] was over 50 µM.

`CCCCCCCC/C=C/CCCCCCCCOP(=O)([O-])OCC[N+](C)(C)C` [Compound 24, 1-elaidylphosphocholine (C18:1, trans)] showed an IC50 ([1]; Rattus norvegicus) of 2.9 µM, an inhibition at 10 µM [1, 4] of 92% and an inhibition at 25 µM [1, 5] of over 75%. It also gave a CD50 [2] of 59.6 µM.

Work on `CCCCCCCCCCCCCCCCOCC(COP(=O)([O-])OCC[N+](C)(C)C)OC(C)=O` (centres unmarked) [Compound 25, 3-O-hexadecyl-2-acetyl-sn-glycero-1-posphocholine] yielded an IC50 ([1]; Rattus norvegicus) of 3 µM, an inhibition at 10 µM [1, 4] of 82% and an inhibition at 25 µM [1, 5] of over 75%.

For `CCCCCCCCCCCCCCCCOCCCOP(=O)([O-])OCC[N+](C)(C)C` [Compound 26, 1-O-hexadecyl-propanediol-3-phosphocholine], the IC50 ([1]; Rattus norvegicus) was 3.1 µM, the inhibition at 10 µM [1, 4] was 90% and the inhibition at 25 µM [1, 5] was over 75%.

For `CCCCCCCCCCCCCCCCCCOCC(C)(C)COP(=O)([O-])OCC[N+](C)(C)C` [Compound 27, 1-O-octadecyl-(2,2-dimethyl)-propanediol-3-phosphocholine], the IC50 ([1]; Rattus norvegicus) was 8 µM, the inhibition at 25 µM [1, 6] was 85% and the inhibition at 25 µM [1, 5] was over 75%.

`CCCCCCCCCCCCCCCCOC[C@H](COP(=O)([O-])OCC[N+](C)(C)C)OC(=O)CC` [Compound 28, 1-O-hexadecyl-2-propionyl-sn-glycero-3-phosphocholine] was tested, and the IC50 ([1]; Rattus norvegicus) was 13.1 µM and the inhibition at 25 µM [1, 6] was 64%.

In the case of `O=C(O)c1cc(=O)c2c(OCC(O)COc3cccc4oc(C(=O)O)cc(=O)c34)cccc2o1` [cromogylcic acid, reference compound], the “activity” value [1] is reported as “no or only low activity”.

In the case of `CN1CCC(=C2c3ccccc3CC(=O)c3sccc32)CC1` [ketotifen fumarate, reference compound], the “activity” value [1] is reported as “no or only low activity”.
